In publication PMC5526604 (Journal of medicinal chemistry, 2017):
Read-outs that look alike come from different tables or passages of the source.

Assays:
[1] = molecular target: HIV integrase (Human immunodeficiency virus type 1 group M subtype B, UniProt P04585); test: HIV IN assay; format: biochemical, HIV-1
[2] = molecular target: HIV RT-associated RNase H (Human immunodeficiency virus type 1 group M subtype B, UniProt P04585); details: biochemical
[3] = read-out: Biochemical Inhibition INST IC50, as relisted in Table 2

SMILES | IC50 [1] [µM] | IC50 [1, 3] [µM] | selectivity of RNase H inhibition over INST inhibition [2] [fold]
O=C(Nc1ccccc1)c1c(NCc2ccccc2)[nH]c(=O)n(O)c1=O [Compound 10q, 6-(Benzylamino)-3-hydroxy-2,4-dioxo-N-phenyl-1,2,3,4-tetrahydropyrimidine-5-carboxamide] | > 100 | > 100 | –
O=C(Nc1ccc(-c2ccccc2)cc1)c1c(NCc2ccccc2)[nH]c(=O)n(O)c1=O [Compound 10o, N-([1,1′-Biphenyl]-4-yl)-6-(benzylamino)-3-hydroxy-2,4-dioxo-1,2,3,4-tetrahydropyrimidine-5-carboxamide] | > 100 | > 100 | –
O=C(NCc1cc(F)ccc1F)c1c(Nc2ccc(-c3ccccc3)cc2)[nH]c(=O)n(O)c1=O [Compound 10j, N-(2,5-Difluorobenzyl)-1-(hydroxy)-1,2,3,6-tetrahydro-2,6-dioxo-4-(biphenylamino) pyrimidine-5-carboxamide] | > 100 | > 100 | –
O=C(NCc1ccc(-c2ccccc2)cc1)c1c(NCc2ccc(-c3ccccc3)cc2)[nH]c(=O)n(O)c1=O [Compound 10l] | > 100 | > 100 | –
O=C(Nc1ccc(-c2ccc(F)cc2)cc1)c1c(Nc2ccc(-c3ccccc3)cc2)[nH]c(=O)n(O)c1=O [Compound 10b, 6-([1,1′-Biphenyl]-4-ylamino)-N-(4′-fluoro-[1,1′-biphenyl]-4-yl)-3-hydroxy-2,4-dioxo-1,2,3,4-tetrahydropyrimidine-5-carboxamide] | > 100 | – | –
COc1ccc(-c2ccc(NC(=O)c3c(Nc4ccc(-c5ccccc5)cc4)[nH]c(=O)n(O)c3=O)cc2)cc1 [Compound 10c, 6-([1,1′-Biphenyl]-4-ylamino)-3-hydroxy-N-(4′-methoxy-[1,1′-biphenyl]-4-yl)-2,4-dioxo-1,2,3,4-tetrahydropyrimidine-5-carboxamide] | > 100 | – | –
O=C(Nc1ccc(-c2ccccc2)cc1)c1c(NCc2ccc(-c3ccccc3)cc2)[nH]c(=O)n(O)c1=O [Compound 10k, N-([1,1′-Biphenyl]-4-yl)-6-(([1,1′-biphenyl]-4-ylmethyl)amino)-3-hydroxy-2,4-dioxo-1,2,3,4-tetrahydropyrimidine-5-carboxamide] | > 100 | > 100 | –
CCc1ccc(NC(=O)c2c(NCc3ccccc3)[nH]c(=O)n(O)c2=O)cc1 [Compound 10v, 6-(Benzylamino)-N-(4-ethylphenyl)-3-hydroxy-2,4-dioxo-1,2,3,4-tetrahydropyrimidine-5-carboxamide] | > 100 | > 100 | –
O=C(NCc1cccc(Cl)c1F)c1c(Nc2ccc(-c3ccccc3)cc2)[nH]c(=O)n(O)c1=O [Compound 10h, N-(3-Chloro-2-fluorobenzyl)-1-(hydroxy)-1,2,3,6-tetrahydro-2,6-dioxo-4-(biphenylamino)pyrimidine-5-carboxamide] | > 100 | – | –
O=C(NCc1ccccc1F)c1c(Nc2ccc(-c3ccccc3)cc2)[nH]c(=O)n(O)c1=O [Compound 10g, N-(2-Fluorobenzyl)-1-(hydroxy)-1,2,3,6-tetrahydro-2,6-dioxo-4-(biphenylamino)pyrimidine-5-carboxamide] | > 100 | – | –
O=C(NCc1ccc(F)cc1F)c1c(Nc2ccc(-c3ccccc3)cc2)[nH]c(=O)n(O)c1=O [Compound 10i, N-(2,4-Difluorobenzyl)-1-(hydroxy)-1,2,3,6-tetrahydro-2,6-dioxo-4-(biphenylamino) pyrimidine-5-carboxamide] | > 100 | > 100 | –
O=C(Nc1ccc(-c2ccccc2)cc1)c1c(Nc2ccc(-c3ccccc3)cc2)[nH]c(=O)n(O)c1=O [Compound 10a, N-([1,1′-Biphenyl]-4-yl)-6-([1,1′-biphenyl]-4-ylamino)-3-hydroxy-2,4-dioxo-1,2,3,4-tetrahydropyrimidine-5-carboxamide] | > 100 | – | –
O=C(NCc1cccc(F)c1)c1c(Nc2ccc(-c3ccccc3)cc2)[nH]c(=O)n(O)c1=O [Compound 10f, N-(3-Fluorobenzyl)-1-(hydroxy)-1,2,3,6-tetrahydro-2,6-dioxo-4 (biphenylamino)pyrimidine-5-carboxamide] | > 100 | > 100 | –
O=C(Nc1ccc(C(F)(F)F)cc1)c1c(NCc2ccccc2)[nH]c(=O)n(O)c1=O [Compound 10y, 6-(Benzylamino)-3-hydroxy-2,4-dioxo-N-(4-(trifluoromethyl)phenyl)-1,2,3,4-tetrahydropyrimidine-5-carboxamide] | > 100 | > 100 | –
O=C(NCc1ccc(-c2ccccc2)cc1)c1c(NCc2ccccc2)[nH]c(=O)n(O)c1=O [Compound 10p, N-([1,1′-Biphenyl]-4-ylmethyl)-6-(benzylamino)-3-hydroxy-2,4-dioxo-1,2,3,4-tetrahydropyrimidine-5-carboxamide] | > 100 | > 100 | –
O=C(NCc1ccccc1)c1c(Nc2ccccc2)[nH]c(=O)n(O)c1=O [Compound 10s, N-Benzyl-1-(hydroxy)-1,2,3,6-tetrahydro-2,6-dioxo-4-(phenylamino)pyrimidine-5-carboxamide] | – | – | ~4
O=C(NCc1ccc(F)cc1)c1c(Nc2ccc(-c3ccccc3)cc2)[nH]c(=O)n(O)c1=O [Compound 10e, N-(4-Fluorobenzyl)-1-(hydroxy)-1,2,3,6-tetrahydro-2,6-dioxo-4-(biphenylamino)pyrimidine-5-carboxamide] | > 100 | – | –
O=C(Nc1ccccc1)c1c(NCc2ccc(-c3ccccc3)cc2)[nH]c(=O)n(O)c1=O [Compound 10m, 6-(([1,1′-Biphenyl]-4-ylmethyl)amino)-3-hydroxy-2,4-dioxo-N-phenyl-1,2,3,4-tetrahydropyrimidine-5-carboxamide] | > 100 | > 100 | –
